# Results reported in patent publication US20260297542A1, “HERBICIDE RESISTANT PLANTS” (SYNGENTA CROP PROTECTION AG, priority 2023, published 2026).
# Positions count from the first letter of the chain named. pIC50: −log10 of the molar value. Read-outs that look alike come from different tables or passages of the source.
# Key:
# [1] = molecular target: T1, His-TEV-AtPP01 ΔcTP V030 (SEQ ID NO: 374) (Arabidopsis thaliana, UniProt P55826, S305L/Y426V); experiment: PPO fluorescence IC50 assay, partially purified enzyme; format: biochemical
# T1 construct: with cTPs removed; made in house; host or cells: E. coli BL21 (DE3), His GraviTrap, partially purified
# T1 sequence (P55826 with tags, fused parts or gaps S305L/Y426V): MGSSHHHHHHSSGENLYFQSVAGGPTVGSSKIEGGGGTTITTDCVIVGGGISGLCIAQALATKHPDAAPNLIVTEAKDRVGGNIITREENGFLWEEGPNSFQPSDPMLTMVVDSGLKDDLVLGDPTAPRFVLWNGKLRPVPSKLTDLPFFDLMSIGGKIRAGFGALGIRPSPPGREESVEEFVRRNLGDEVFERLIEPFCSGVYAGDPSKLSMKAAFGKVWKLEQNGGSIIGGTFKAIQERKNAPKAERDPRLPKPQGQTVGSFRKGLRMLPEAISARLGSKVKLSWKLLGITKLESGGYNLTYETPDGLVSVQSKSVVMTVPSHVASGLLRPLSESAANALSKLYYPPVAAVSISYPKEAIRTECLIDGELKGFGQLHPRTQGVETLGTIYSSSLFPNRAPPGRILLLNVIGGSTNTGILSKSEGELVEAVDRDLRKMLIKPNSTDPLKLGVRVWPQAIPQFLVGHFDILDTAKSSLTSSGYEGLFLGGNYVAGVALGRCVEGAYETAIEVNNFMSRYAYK
# From the text: (§1) A pET24 plasmid containing a DNA sequence encoding variants of AtPPO1 derived from Arabidopsis thaliana with cTPs removed and both a 6×His tag and TEV protease cleavage tag added at the N-terminus, codon-optimised for expression in E. coli, and under control of a T7 promoter, was synthesised by Twist Bioscience. The following variants were synthesised: WT AtPPO1 (SEQ ID NO: 370), AtPPO1 L479M (SEQ ID NO: 371), AtPPO1 L479N (SEQ ID NO: 372), AtPPO1 S305L Y426V (SEQ ID NO: 374) and AtPPO1 S305L Y426V L479M (SEQ ID NO: 373). This plasmid was expressed in E. coli BL21 (DE3) with 50 μg/mL kanamycin selection. 10 mL of overnight cultures grown at 37° C. were used to inoculate 1 L AIM (AIM-Terrific Broth Base including Trace elements, Formedium) in 2 L shake flasks. Cultures were grown at 37° C., 200 rpm for 3 hours and then overnight at 26° C. Cells were harvested centrifugation. 5-15 g of cell pellet was lysed in and resuspended in ratio of 1:1.5 in lysis buffer (20 mM Tris pH8, 500 mM sodium chloride, 10% glycerol, 1× complete Protease EDTA-free Inhibitor Tablet (Roche), 10 mM imidazole). The resuspension was sonicated at 75% using 10 cycles of 30 seconds, 40 seconds off. After sonication Triton X-100 was added to the lysates at a final concentration of 0.5%. The lysates were centrifuged at 20,000 rpm for 25 min at 4° C. Cleared lysates were loaded on His GraviTrap (Cytiva) columns, washed with 20 mL of lysis buffer and eluted in elution buffer (20 mM Tris pH8, 500 mM sodium chloride, 10% glycerol, 200 mM imidazole, 0.03% (v/v) Triton X-100). The eluate was desalted on a PD10 column and 2.5-3.2 mL was collected. Protein concentration was measured and calculated using the absorbance at 280 nm. Extracts were diluted 1 in 4 and 10 uL was analysed by SDS PAGE.
# (§2) Partially purified Protoporphyrinogen Oxidase enzymes were assayed for activity using fluorescence adapted from the method of Shepherd & Dailey (Anal Biochem. 2005 344(1) 115-121). The assay was performed in black 384 well plates with a clear bottom and the total volume of the reaction mixture was 91 ul. The final assay mixture contained 100 mM K2HPO4 pH7.2, 1 mM Na2EDTA, 5 mM DTT, 20% glycerol (v/v), 0.05% Tween 20 (v/v), 1.1% DMSO (v/v), 1 uM protoporphyrinogen IX and 1.5 nM enzyme. Compounds were dissolved in DMSO at 1 mM and a 4-fold serial dilution carried out to give 8 rates. 1 ul was added to the assay mixture. This gave final compound concentrations of 11, 2.7, 0.69, 0.17, 0.04, 0.01, 0.002, 0.0007 uM. Enzyme and inhibitor were preincubated for 5 minutes prior to starting the reaction with the addition of the substrate. […] IC50s were calculated using GraphPad Prism 7.05 nonlinear regression (Table 6). Each compound was tested in duplicate.
# [2] = molecular target: T2, His-TEV-AtPP01 ΔcTP L479N (SEQ ID NO: 372) (Arabidopsis thaliana, UniProt P55826, L479N); experiment: as above; format: biochemical
# T2 construct: with cTPs removed; made in house; host or cells: E. coli BL21 (DE3), His GraviTrap, partially purified
# T2 sequence (P55826 with tags, fused parts or gaps L479N): T1 sequence (P55826 with tags, fused parts or gaps S305L/Y426V) with L290S, V411Y, L464N
# From the text: as §1, §2
# [3] = role: inhibitor, 1 uM protoporphyrinogen IX, <1.0 is below detection limit of assay
Structure (SMILES),pIC50 [1],pIC50 [2],"pIC50 [1, 3]","pIC50 [2, 3]"
CC(C)Oc1cc(-n2nc(C(C)(C)C)oc2=O)c(Cl)cc1Cl [Oxadiazaon],5.34,8.21,–,–
"C=CCOC(=O)C(C)(C)OC(=O)c1cc(-n2c(=O)cc(C(F)(F)F)n(C)c2=O)ccc1Cl [Butafenacil, butafenacil]",7.96,9.05,–,–
"CCOC(=O)[C@]1(C)CC(c2cc(-n3c(=O)n(C)c(=S)n(C)c3=O)c(F)cc2Cl)=NO1 [Herbicide D, ethyl (5S)-3-[2-chloro-5-(3,5-dimethyl-2,6-dioxo-4-thioxo-1,3,5-triazinan-1-yl)-4-fluoro-phenyl]-5-methyl-4H-isoxazole-5-carboxylate]",6.57,9.10,–,–
C#CCOc1cc(-n2nc3n(c2=O)CCCC3)c(Cl)cc1Cl [Azafenadin],6.93,9.10,–,–
"CCOC(=O)C1(C)CC(c2cc(-n3c(=O)cc(C(F)(F)F)n(C)c3=O)c(F)cc2Cl)=NO1 (centres unmarked) [Herbicide C, 3-(2-chloro-4-fluoro-5-(3-methyl-2,6-dioxo-4-trifluoromethyl-3,6-dihydropyrimidin-1(2H)-yl)phenyl)-5-methyl-4,5-dihydroisoxazole-5-carboxylic acid ethyl ester]",7.04,9.05,–,–
"COC(=O)C(C)ON=Cc1cc(-n2c(=O)cc(C(F)(F)F)n(C)c2=O)c(F)cc1Cl (centres unmarked) [Flufenoximacil, flufenoximacil]",–,–,6.14,9.10
"CCOC(=O)COc1ncccc1Oc1cc(-n2c(=O)cc(C(F)(F)F)n(C)c2=O)c(F)cc1Cl [Herbicide A, epyrifenacil]",6.49,9.05,–,–
"C#CCN1C(=O)C(F)(F)Oc2cc(F)c(-n3c(=O)n(C)c(=S)n(C)c3=O)cc21 [Herbicide B, trifludimoxazin]",8.89,9.00,–,–
"CCOC(=O)COc1cc(-c2nn(C)c(OC(F)F)c2Cl)c(F)cc1Cl [Pyraflufen-ethyl, pyraflufen-ethyl]",7.73,9.10,–,–
"CS(=O)(=O)NC(=O)c1cc(Oc2ccc(C(F)(F)F)cc2Cl)ccc1[N+](=O)[O-] [Fomesafen, fomesafen]",9.15,8.85,–,–
"CC(C)N(C)S(=O)(=O)NC(=O)c1cc(-n2c(=O)cc(C(F)(F)F)n(C)c2=O)c(F)cc1Cl [Herbicide E, saflufenacil]",6.26,8.59,–,–
C#CCN(C)c1c(C#N)cnn1-c1nn2c(c1Cl)CCCC2 [Pyraclonil],5.36,8.82,–,–
"C#CCN1C(=O)COc2cc(F)c(N3C(=O)C4=C(CCCC4)C3=O)cc21 [Flumioxazin, flumioxazin]",7.33,9.00,–,–
